Measured values reported in ChEMBL document CHEMBL1201862, “PubChem BioAssay data set” (2004).
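Results reflect a 48-hour exposure of cells in 96-well plates to compound at five concentrations. Abbreviation: GI50, concentration required for 50% inhibition of growth.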 Active and inactive are the calls of the source. Rule as the data show it: active = GI50 up to about 1.1 µM and inactive = higher.

How the values were obtained:
Experiment in all cases: inhibition of tumour cell growth, NCI panel, 48 h
A549 = test system: A549
CAKI-1 = test system: CAKI-1
HL-60 = test system: HL-60
HOP-92 = test system: HOP-92
HT-29 = test system: HT-29
Hs-578T = test system: Hs-578T
LOX IMVI = test system: LOX IMVI
M14 = test system: M14
MOLT-4 = test system: MOLT-4
NCI-H23 = test system: NCI-H23
NCI-H460 = test system: NCI-H460
OVCAR-4 = test system: OVCAR-4
PC-3 = test system: PC-3
RXF 393 = test system: RXF 393
SF-268 = test system: SF-268
SNB-75 = test system: SNB-75
TK-10 = test system: TK-10
UACC-62 = test system: UACC-62
HCC 2998 = test system: HCC 2998
UO-31 = test system: UO-31

| Structure (SMILES) | GI50 (A549) | GI50 (CAKI-1) | GI50 (HL-60) | GI50 (HOP-92) | GI50 (HT-29) | GI50 (Hs-578T) | GI50 (LOX IMVI) | GI50 (M14) | GI50 (MOLT-4) | GI50 (NCI-H23) | GI50 (NCI-H460) | GI50 (OVCAR-4) | GI50 (PC-3) | GI50 (RXF 393) | GI50 (SF-268) | GI50 (SNB-75) | GI50 (TK-10) | GI50 (UACC-62) | GI50 (HCC 2998) | GI50 (UO-31) |
| --- | --- | --- | --- | --- | --- | --- | --- | --- | --- | --- | --- | --- | --- | --- | --- | --- | --- | --- | --- | --- |
| Cc1cc(N2CCN(C)CC2)n2nc(-c3ccc(Cl)cc3)nc2n1 | > 100 µM (inactive) | > 100 µM (inactive) | 27.3 µM (inactive) | > 100 µM (inactive) | 69.5 µM (inactive) | > 100 µM (inactive) | 61.1 µM (inactive) | > 100 µM (inactive) | 34.8 µM (inactive) | > 100 µM (inactive) | 50.7 µM (inactive) | > 100 µM (inactive) | > 100 µM (inactive) | 31.5 µM (inactive) | > 100 µM (inactive) | 66.7 µM (inactive) | 68.1 µM (inactive) | 75.3 µM (inactive) |  |  |
| O=S1(=O)CCN(Cc2ccccn2)CC1 | > 100 µM (inactive) | > 100 µM (inactive) |  | > 100 µM (inactive) | > 100 µM (inactive) | > 100 µM (inactive) | > 100 µM (inactive) | > 100 µM (inactive) |  | > 100 µM (inactive) | > 100 µM (inactive) | > 100 µM (inactive) | > 100 µM (inactive) | > 100 µM (inactive) | > 100 µM (inactive) | > 100 µM (inactive) | > 100 µM (inactive) | > 100 µM (inactive) | > 100 µM (inactive) | > 100 µM (inactive) |
| O=C(/C=C/c1ccc2c(c1)OCO2)NCc1ccco1 | > 100 µM (inactive) | > 100 µM (inactive) |  | 92.5 µM (inactive) | > 100 µM (inactive) | > 100 µM (inactive) | > 100 µM (inactive) | > 100 µM (inactive) | > 100 µM (inactive) | > 100 µM (inactive) | > 100 µM (inactive) | 41.6 µM (inactive) | > 100 µM (inactive) |  |  | 22.3 µM (inactive) | > 100 µM (inactive) | 74.6 µM (inactive) | > 100 µM (inactive) | 67.1 µM (inactive) |
| CCOC(=O)C1CCC(=O)N1C(=O)c1cccc(Cl)c1 (stereo unspecified) | > 100 µM (inactive) | > 100 µM (inactive) | > 100 µM (inactive) | > 100 µM (inactive) | > 100 µM (inactive) | > 100 µM (inactive) | > 100 µM (inactive) | > 100 µM (inactive) | > 100 µM (inactive) | > 100 µM (inactive) | > 100 µM (inactive) |  | > 100 µM (inactive) | > 100 µM (inactive) | > 100 µM (inactive) | > 100 µM (inactive) | > 100 µM (inactive) | 14.8 µM (inactive) |  | > 100 µM (inactive) |
| CCNC1=C(NC(=O)c2ccccc2)C(=O)c2ccccc2C1=O | 67.6 µM (inactive) |  | 36.3 µM (inactive) | 55.6 µM (inactive) | 36.6 µM (inactive) | 38.7 µM (inactive) |  | 26.2 µM (inactive) | 63.4 µM (inactive) | 36.7 µM (inactive) | 39.4 µM (inactive) | 81.3 µM (inactive) | 18.2 µM (inactive) | 24.2 µM (inactive) |  |  | 98.4 µM (inactive) | 20 µM (inactive) | 33 µM (inactive) |  |
| CN(C)CCCNc1ccc2nnn3c4ccc(OC(=O)c5ccccc5)cc4c(=O)c1c23 | 2.43 µM (inactive) | 0.579 µM (active) |  | 12.6 µM (inactive) | 3.71 µM (inactive) | 18.3 µM (inactive) | 2.17 µM (inactive) | 13.4 µM (inactive) | 0.192 µM (active) | 13.4 µM (inactive) | 0.76 µM (active) | 1.66 µM (inactive) | 8.34 µM (inactive) | 4.44 µM (inactive) | 10.5 µM (inactive) |  | 7.8 µM (inactive) | 14.5 µM (inactive) | 9.08 µM (inactive) | 4.14 µM (inactive) |
| CC1NCCC(CC(=O)O)C1CC(=O)O (stereo unspecified) | > 100 µM (inactive) | > 100 µM (inactive) | > 100 µM (inactive) | > 100 µM (inactive) | > 100 µM (inactive) | > 100 µM (inactive) | > 100 µM (inactive) | > 100 µM (inactive) |  | > 100 µM (inactive) | > 100 µM (inactive) | > 100 µM (inactive) | > 100 µM (inactive) | > 100 µM (inactive) | > 100 µM (inactive) | 97.9 µM (inactive) | > 100 µM (inactive) | > 100 µM (inactive) | > 100 µM (inactive) | > 100 µM (inactive) |
| O=C1c2ccccc2C(=O)N1c1nc(-c2ccc(Cl)cc2)cc(N2N=C(c3ccc(Br)cc3)CC2c2ccccc2)n1 (stereo unspecified) | 3.24 µM (inactive) | 1.51 µM (inactive) | 2.9 µM (inactive) | 11.4 µM (inactive) | 2.94 µM (inactive) | 3.74 µM (inactive) | 1.29 µM (inactive) | 3.73 µM (inactive) | 2.51 µM (inactive) | 5.37 µM (inactive) | 4.36 µM (inactive) | 4.23 µM (inactive) | 3.93 µM (inactive) | 9.16 µM (inactive) | 2.7 µM (inactive) |  | 7.98 µM (inactive) | 2.72 µM (inactive) | 0.301 µM (active) | 4.81 µM (inactive) |
| CC1=C(C)C2(C#N)C(=O)N3C(=NC(c4ccccc4)NC3c3ccccc3)C2(C#N)C(c2ccccc2)N1 (stereo unspecified) | > 100 µM (inactive) | > 100 µM (inactive) | > 100 µM (inactive) | > 100 µM (inactive) | > 100 µM (inactive) | > 100 µM (inactive) | > 100 µM (inactive) | > 100 µM (inactive) | > 100 µM (inactive) | > 100 µM (inactive) | > 100 µM (inactive) | > 100 µM (inactive) | > 100 µM (inactive) | > 100 µM (inactive) | > 100 µM (inactive) |  | > 100 µM (inactive) | > 100 µM (inactive) | > 100 µM (inactive) | > 100 µM (inactive) |
| CN1C(Cl)=NS(=O)(=O)c2ccccc21 | > 100 µM (inactive) | 16.9 µM (inactive) | 35.7 µM (inactive) | > 100 µM (inactive) | > 100 µM (inactive) | > 100 µM (inactive) | > 100 µM (inactive) | > 100 µM (inactive) | 51.4 µM (inactive) | > 100 µM (inactive) | 92.7 µM (inactive) | > 100 µM (inactive) | > 100 µM (inactive) | > 100 µM (inactive) | > 100 µM (inactive) |  | > 100 µM (inactive) | > 100 µM (inactive) | > 100 µM (inactive) | > 100 µM (inactive) |
| Cc1ccc(/C=C2\CN(C)CC3C(c4ccc(C)cc4)=C(C#N)C(=O)NC23)cc1 (stereo unspecified) | > 50 µM (inactive) | > 50 µM (inactive) |  | 29.3 µM (inactive) | > 50 µM (inactive) | > 50 µM (inactive) | > 50 µM (inactive) | > 50 µM (inactive) | > 50 µM (inactive) | > 50 µM (inactive) | > 50 µM (inactive) | > 50 µM (inactive) | > 50 µM (inactive) | > 50 µM (inactive) | > 50 µM (inactive) |  | > 50 µM (inactive) | > 50 µM (inactive) | > 50 µM (inactive) |  |
| O=C(NCCCCNCCCNC(=O)c1cc(-c2ccccc2)nc2ccccc12)c1cc(-c2ccccc2)nc2ccccc12 | 1.65 µM (inactive) | 1.84 µM (inactive) | 1.71 µM (inactive) | 1.37 µM (inactive) | 1.6 µM (inactive) | 1.96 µM (inactive) | 1.54 µM (inactive) | 2.1 µM (inactive) | 1.42 µM (inactive) | 1.98 µM (inactive) | 1.91 µM (inactive) |  | 1.63 µM (inactive) | 2.19 µM (inactive) | 2.03 µM (inactive) | 1.84 µM (inactive) | 1.59 µM (inactive) | 2.12 µM (inactive) | 1.64 µM (inactive) | 1.7 µM (inactive) |
| Cc1cc(N2CCCCC2)nc2ccc(Cc3ccc4nc(N5CCCCC5)cc(C)c4c3)cc12 | > 100 µM (inactive) | > 100 µM (inactive) |  | > 100 µM (inactive) | 23.6 µM (inactive) | > 100 µM (inactive) | > 100 µM (inactive) | > 100 µM (inactive) | > 100 µM (inactive) | > 100 µM (inactive) | > 100 µM (inactive) | > 100 µM (inactive) | > 100 µM (inactive) | > 100 µM (inactive) | > 100 µM (inactive) | > 100 µM (inactive) | > 100 µM (inactive) | > 100 µM (inactive) | 22.8 µM (inactive) | > 100 µM (inactive) |
| Cc1c(Cl)ccc2c(=O)c3cccc(CC(=O)O)c3oc12 | > 100 µM (inactive) | > 100 µM (inactive) | > 100 µM (inactive) | > 100 µM (inactive) | > 100 µM (inactive) | > 100 µM (inactive) | > 100 µM (inactive) | > 100 µM (inactive) | > 100 µM (inactive) | > 100 µM (inactive) | > 100 µM (inactive) | > 100 µM (inactive) | > 100 µM (inactive) |  | > 100 µM (inactive) |  | > 100 µM (inactive) |  | > 100 µM (inactive) | > 100 µM (inactive) |
| CC(=O)OCCOc1cc2c([nH]c3ccccc32)c(C)c2cccc1-2 | 3.85 µM (inactive) | 2.12 µM (inactive) | 3.05 µM (inactive) | 1.86 µM (inactive) | 3.78 µM (inactive) | 3.47 µM (inactive) | 2.61 µM (inactive) | 2.48 µM (inactive) | 3.33 µM (inactive) | 1.94 µM (inactive) | 2.59 µM (inactive) | 1.77 µM (inactive) | 1.76 µM (inactive) | 1.95 µM (inactive) | 2.47 µM (inactive) | 1.71 µM (inactive) | 2.2 µM (inactive) | 2.39 µM (inactive) |  | 1.75 µM (inactive) |
